The subject of one data set is Bovidae. Conditions: subchronic; duration: 42 days; oral; diet; M; no effects.
Another data set has as its system Sus scrofa. Conditions: subchronic; duration: 42 days; oral; diet; M/F; Not specified; no effects.
Another data set relates to Gallus gallus. Conditions: subchronic; duration: 36 days; oral; diet; M; Chicken; no effects.

In the case of `CC(=O)OCCC(C)C` [3-Methylbutyl acetate], the LEL in the data set on Bovidae, in the data set on Sus scrofa and in the data set with Gallus gallus was 1250 mg/kg-day throughout.
Consider `COc1ccc2ccccc2c1` [2-Methoxynaphthalene], for which the LEL with Bovidae, with Sus scrofa and in the data set on Gallus gallus was 12 mg/kg-day each time.
Take `Cc1csc(C(C)C)n1` [2-Isopropyl-4-methylthiazole]: the LEL with Bovidae, in the data set with Sus scrofa and in the data set on Gallus gallus was 15 mg/kg-day throughout.
Turning to `CCCCCCC(=O)OCC` [Ethyl heptanoate], the LEL in the data set on Bovidae, with Sus scrofa and in the data set on Gallus gallus was 318 mg/kg-day in each case.
Regarding `CC(C)CC(=O)OCCc1ccccc1` [Phenethyl isovalerate], the LEL with Bovidae, in the data set on Sus scrofa and with Gallus gallus was 300 mg/kg-day throughout.
As for `C=CC(C)(O)CCC=C(C)C` (configuration not stated) [Linalool], the LEL in the data set on Bovidae, in the data set on Sus scrofa and in the data set on Gallus gallus was 300 mg/kg-day in each case.
In the case of `O=C1CCCCCCCCCCCCCCO1` [Pentadecan-15-olide], the LEL in the data set on Bovidae, in the data set on Sus scrofa and with Gallus gallus was 100 mg/kg-day in each case.
In the case of `CC1CCC(C(C)(C)S)C(=O)C1` (configuration not stated) [p-Mentha-8-thiol-3-one], the LEL with Bovidae, with Sus scrofa and in the data set with Gallus gallus was 5 mg/kg-day in each case.
`OCCc1ccccc1` [2-Phenylethanol]: the LEL in the data set with Bovidae, in the data set with Sus scrofa and in the data set on Gallus gallus was 125 mg/kg-day each time.
